Patent US11241442B2, “Methods of use for TRP channel antagonist-based combination cancer therapies” (President and Fellows of Harvard College, priority 2017, dated 2022)

Legend:
Format in all cases: cell-based
MPNST cells = experiment: H2O2- and carboplatin-induced cytotoxicity in MPNST cells; settings: TRPA1 expression-dependent
Protocol: (§1) For the measurements of live cell number and cell death under treatment with H2O2, diamide, or chemotherapies, cells were cultured on 96-well plates in the presence or absence of these drugs for indicated times and stained with 5 μM bisBenzimide H 33342 trihydrochloride (Hoechst; Sigma) and 5 μM propidium iodide (PI; Sigma) for 1 h at 37° C. Hoechst- and/or PI-positive cells were counted using a laser scanning cytometer, Acumen Cellista (TTPLabTech). Apoptotic cells induced by H2O2 treatment were measured by staining with Annexin V-Alexa Fluor® 488 conjugate (Life Technologies) and PI in Ca^2+-containing solution (10 mM HEPES pH 7.4, 140 mM NaCl; 2.5 mM CaCl2), followed by flow cytometric measurement of fluorescence using a FACSCalibur. Flow cytometry plots are representative of three independent experiments. […] Viable cells were counted using the Countless Automated Cell Counters (Thermo Fisher Scientific). […] Hoechst- and/or PI-positive areas were measured using Acumen Cellista. Apoptotic cells induced by detachment were measured by staining with 5 μM Hoechst and 5 μM of CellEvent™ Caspase-3/7 Green Detection Reagent (Thermo Fisher Scientific) for 1 h at 37° C. without enzymatic dissociation of cell clumps. Hoechst- and/or CellEvent™ Caspase-3/7 Green Detection Reagent-positive areas were measured using Acumen Cellista. […]

HCC70 = experiment: Live cell number under carboplatin in HCC70 cells; settings: 10 μM AP-18; carboplatin 72 h; HCC70, very low TRPA1
Protocol: as §1

EL-12-58 cells = experiment: Live cell number under carboplatin in EL-12-58 cells; settings: 10 μM AP-18, carboplatin 72 h
Protocol: as §1

MCF-10A acini = experiment: [H2O2]i by Hyper-2 in MCF-10A 3D acini
Protocol: For the measurement of [H2O2]i levels in MCF-10A acini and HCC1569 spheroids, cells were transduced with a lentiviral vector encoding Hyper-2 or Hyper-2 (C199S). The Hyper-2 fluorescence was measured at 37° C. in HEPES-buffered saline (HBS) containing the following (in mM): 150 NaCl, 6 KCl, 1.2 MgSO4, 2 CaCl2, 11.5 glucose, and 25 HEPES (pH adjusted to 7.4 with NaOH). Fluorescence images of the cells were acquired through the Eclipse Ti-E microscope (Nikon) with ORCA-R2 cooled CCD camera (Hamamatsu Photonics) and analyzed with Metafluor image acquisition software (Molecular Devices). The 488:405-nm ratio images were obtained on a pixel-by-pixel basis. 3D images are shown as one section from midstructure. For the measurement of [H2O2]i levels in MCF-10A cells cultured in suspension, cell clumps were dissociated with trypsin and stained with 10 μM peroxy green-1 for 30 min at 37° C. Cells were then subjected to flow cytometric analysis (FACSCalibur; BD Biosciences). ROS levels determined by flow cytometry are reported as mean fluorescence intensity expressed in arbitrary units. Hyper-2 ratio images are representative from two independent experiments and averaged Hyper-2 ratio represents mean±SD from the sum of two independent experiments.

BT-549 = experiment: Live cell number under carboplatin in BT-549 cells; settings: 10 μM AP-18; carboplatin 72 h; BT-549, very low TRPA1
Protocol: as §1

HCC1569 cells = experiment: Live cell number and cell death under carboplatin in HCC1569 cells; settings: carboplatin 72 h
Protocol: For the measurements of live cell number and cell death under treatment with H2O2, diamide, or chemotherapies, cells were cultured on 96-well plates in the presence or absence of these drugs for indicated times and stained with 5 μM bisBenzimide H 33342 trihydrochloride (Hoechst; Sigma) and 5 μM propidium iodide (PI; Sigma) for 1 h at 37° C. Hoechst- and/or PI-positive cells were counted using a laser scanning cytometer, Acumen Cellista (TTPLabTech). Apoptotic cells induced by H2O2 treatment were measured by staining with Annexin V-Alexa Fluor® 488 conjugate (Life Technologies) and PI in Ca^2+-containing solution (10 mM HEPES pH 7.4, 140 mM NaCl; 2.5 mM CaCl2), followed by flow cytometric measurement of fluorescence using a FACSCalibur. Flow cytometry plots are representative of three independent experiments. For the counting of viable cells cultured in suspension, cell clumps were dissociated with trypsin and stained with trypan blue. Viable cells were counted using the Countless Automated Cell Counters (Thermo Fisher Scientific). For the measurement of percentage of dead cells cultured in suspension, cells were cultured on poly HEMA-coated 96-well plates and stained with 5 μM Hoechst and 5 μM PI for 1 h at 37° C. without enzymatic dissociation of cell clumps. Hoechst- and/or PI-positive areas were measured using Acumen Cellista. Apoptotic cells induced by detachment were measured by staining with 5 μM Hoechst and 5 μM of CellEvent™ Caspase-3/7 Green Detection Reagent (Thermo Fisher Scientific) for 1 h at 37° C. without enzymatic dissociation of cell clumps. Hoechst- and/or CellEvent™ Caspase-3/7 Green Detection Reagent-positive areas were measured using Acumen Cellista. For the cell cycle analysis, enzymatically dissociated cells were fixed with ice-cold 70% EtOH for at least 30 min at 4° C., washed three times with PBS at 4° C., resuspended in PBS, treated with 100 μg/ml RNase A (Sigma), and stained with 50 μg/ml PI. The stained samples were subjected to flow cytometric analysis (FACSCalibur).

TRPA1 = molecular target: T1, TRPA1 (Homo sapiens, UniProt O75762); experiment: AITC-evoked [Ca2+]i rises in TRPA1-enriched NSCLC cells; settings: 10 μM AP-18, 30 μM AITC
T1 construct: endogenous in cells; host or cells: HCC1569 breast cancer cells (2D culture or 3D spheroids; shGFP or shTRPA1 transduced)
T1 sequence (O75762 whole entry): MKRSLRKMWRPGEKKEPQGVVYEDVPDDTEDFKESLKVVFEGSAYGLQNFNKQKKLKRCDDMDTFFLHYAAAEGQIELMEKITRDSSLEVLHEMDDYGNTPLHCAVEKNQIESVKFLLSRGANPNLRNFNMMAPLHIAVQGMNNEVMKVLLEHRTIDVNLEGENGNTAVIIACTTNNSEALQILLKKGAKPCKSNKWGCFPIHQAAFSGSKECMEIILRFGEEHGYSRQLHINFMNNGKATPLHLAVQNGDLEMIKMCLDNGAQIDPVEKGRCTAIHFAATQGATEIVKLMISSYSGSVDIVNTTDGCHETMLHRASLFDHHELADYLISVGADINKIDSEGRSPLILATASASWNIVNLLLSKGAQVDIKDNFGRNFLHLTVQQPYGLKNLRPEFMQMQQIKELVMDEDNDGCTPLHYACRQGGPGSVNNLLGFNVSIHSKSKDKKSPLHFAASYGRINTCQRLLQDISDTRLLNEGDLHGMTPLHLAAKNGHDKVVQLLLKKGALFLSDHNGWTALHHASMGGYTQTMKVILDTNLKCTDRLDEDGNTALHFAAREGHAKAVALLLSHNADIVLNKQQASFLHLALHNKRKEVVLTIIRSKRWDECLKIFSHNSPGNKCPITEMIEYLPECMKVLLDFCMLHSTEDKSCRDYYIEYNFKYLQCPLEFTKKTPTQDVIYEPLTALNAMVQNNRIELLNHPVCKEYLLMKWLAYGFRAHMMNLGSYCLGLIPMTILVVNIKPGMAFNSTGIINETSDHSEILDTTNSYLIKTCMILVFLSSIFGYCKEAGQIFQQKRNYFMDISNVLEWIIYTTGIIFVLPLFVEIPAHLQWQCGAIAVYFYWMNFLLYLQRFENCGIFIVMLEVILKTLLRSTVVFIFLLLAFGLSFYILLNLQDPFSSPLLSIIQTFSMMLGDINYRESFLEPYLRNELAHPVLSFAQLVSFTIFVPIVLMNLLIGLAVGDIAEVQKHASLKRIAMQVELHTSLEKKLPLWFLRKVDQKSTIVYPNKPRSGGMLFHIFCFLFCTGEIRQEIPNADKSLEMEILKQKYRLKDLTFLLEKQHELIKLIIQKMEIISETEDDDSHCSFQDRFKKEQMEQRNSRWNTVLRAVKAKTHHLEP
Protocol: For the measurement of [Ca^2+]i levels in cells cultured in 2D or 3D (in Matrigel), cells were stained with 3.5 μM fura-2-AM (Life Technology) in the presence of 2.5 mM probenecid (Sigma) and 0.02% Pluronic F-127 (Sigma) for 45 min at 37° C. The fura-2 fluorescence was measured in HBS solution containing 1.25 mM probenecid at 37° C. Fluorescence images of the cells were acquired through the Eclipse Ti-E microscope with ORCA-R2 cooled CCD camera and analyzed with Metafluor. The 340:380-nm ratio images were obtained on a pixel-by-pixel basis and were converted to Ca^2+ concentrations by in vivo calibration using 5 μM ionomycin as described previously (Nishida et al., Biochem. Biophys. Res. Commun., 262:350-354, 1999). 3D images are shown as one section from midstructure. For the measurement of [Ca^2+]i levels in cells cultured in suspension, cell clumps were dissociated with trypsin and [Ca^2+]i levels were determined by using Fluo-4 NW Calcium Assay Kit (Molecular Probes). Cells were stained with Fluo-4 according to the manufacturer's instructions and subjected to flow cytometric analysis (FACSCalibur) using HBS as sheath fluid. [Ca^2+]i levels determined by flow cytometry are reported as mean fluorescence intensity expressed in arbitrary units. […]

NSCLC cells = experiment: H2O2- and carboplatin-induced cytotoxicity in NSCLC cells; settings: TRPA1 expression-dependent
Protocol: as §1

AP-18
sensitization to carboplatin-induced cytotoxicity (MPNST cells; 10 μM AP-18, carboplatin 72 h): sensitized
sensitization to H2O2-induced cytotoxicity (MPNST cells): sensitized
sensitization to carboplatin (HCC70): minimal to no effect
sensitization to carboplatin (EL-12-58 cells): sensitized
increase in [H2O2]i (Hyper-2) in inner ECM-deprived cells (MCF-10A acini): unaffected
sensitization to carboplatin (BT-549): minimal to no effect
cell death in response to carboplatin treatment (HCC1569 cells): enhanced
live cell number in response to carboplatin treatment (HCC1569 cells): substantially suppressed
inhibition of AITC-induced [Ca2+]i rises (TRPA1): abolished
sensitization to carboplatin-induced cytotoxicity (NSCLC cells; 10 μM AP-18, carboplatin 72 h): sensitized
sensitization to H2O2-induced cytotoxicity (NSCLC cells): sensitized
